Laboratory results: US20240025884A1 (Dong-A ST Co., Ltd., priority 2022, published 2024)

Target: GCN2 (Homo sapiens (Human), UniProt Q9P2K8)
Assay: GCN2 Biochemical Assay (TR-FRET, GFP-eIF2S1 substrate phosphorylation)
Conditions: read-out: IC50 (GCN2 Inhibitory Activity)
Method in brief: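 In-house GCN2 (1.6 nM 2× stock) phosphorylates GFP-eIF2S1 (50 nM 2× stock) with ATP (0.2 mM 2× stock) and tRNA, pH 7.5, 70 min at room temperature; 10-point 3.16-fold compound series. TR-FRET detection with Tb-anti-phospho antibody, 2–3 h, Ex 340/Em 490/520 nm; artifact plate spiked with phospho-substrate.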

Chain of GCN2 (Q9P2K8 whole entry): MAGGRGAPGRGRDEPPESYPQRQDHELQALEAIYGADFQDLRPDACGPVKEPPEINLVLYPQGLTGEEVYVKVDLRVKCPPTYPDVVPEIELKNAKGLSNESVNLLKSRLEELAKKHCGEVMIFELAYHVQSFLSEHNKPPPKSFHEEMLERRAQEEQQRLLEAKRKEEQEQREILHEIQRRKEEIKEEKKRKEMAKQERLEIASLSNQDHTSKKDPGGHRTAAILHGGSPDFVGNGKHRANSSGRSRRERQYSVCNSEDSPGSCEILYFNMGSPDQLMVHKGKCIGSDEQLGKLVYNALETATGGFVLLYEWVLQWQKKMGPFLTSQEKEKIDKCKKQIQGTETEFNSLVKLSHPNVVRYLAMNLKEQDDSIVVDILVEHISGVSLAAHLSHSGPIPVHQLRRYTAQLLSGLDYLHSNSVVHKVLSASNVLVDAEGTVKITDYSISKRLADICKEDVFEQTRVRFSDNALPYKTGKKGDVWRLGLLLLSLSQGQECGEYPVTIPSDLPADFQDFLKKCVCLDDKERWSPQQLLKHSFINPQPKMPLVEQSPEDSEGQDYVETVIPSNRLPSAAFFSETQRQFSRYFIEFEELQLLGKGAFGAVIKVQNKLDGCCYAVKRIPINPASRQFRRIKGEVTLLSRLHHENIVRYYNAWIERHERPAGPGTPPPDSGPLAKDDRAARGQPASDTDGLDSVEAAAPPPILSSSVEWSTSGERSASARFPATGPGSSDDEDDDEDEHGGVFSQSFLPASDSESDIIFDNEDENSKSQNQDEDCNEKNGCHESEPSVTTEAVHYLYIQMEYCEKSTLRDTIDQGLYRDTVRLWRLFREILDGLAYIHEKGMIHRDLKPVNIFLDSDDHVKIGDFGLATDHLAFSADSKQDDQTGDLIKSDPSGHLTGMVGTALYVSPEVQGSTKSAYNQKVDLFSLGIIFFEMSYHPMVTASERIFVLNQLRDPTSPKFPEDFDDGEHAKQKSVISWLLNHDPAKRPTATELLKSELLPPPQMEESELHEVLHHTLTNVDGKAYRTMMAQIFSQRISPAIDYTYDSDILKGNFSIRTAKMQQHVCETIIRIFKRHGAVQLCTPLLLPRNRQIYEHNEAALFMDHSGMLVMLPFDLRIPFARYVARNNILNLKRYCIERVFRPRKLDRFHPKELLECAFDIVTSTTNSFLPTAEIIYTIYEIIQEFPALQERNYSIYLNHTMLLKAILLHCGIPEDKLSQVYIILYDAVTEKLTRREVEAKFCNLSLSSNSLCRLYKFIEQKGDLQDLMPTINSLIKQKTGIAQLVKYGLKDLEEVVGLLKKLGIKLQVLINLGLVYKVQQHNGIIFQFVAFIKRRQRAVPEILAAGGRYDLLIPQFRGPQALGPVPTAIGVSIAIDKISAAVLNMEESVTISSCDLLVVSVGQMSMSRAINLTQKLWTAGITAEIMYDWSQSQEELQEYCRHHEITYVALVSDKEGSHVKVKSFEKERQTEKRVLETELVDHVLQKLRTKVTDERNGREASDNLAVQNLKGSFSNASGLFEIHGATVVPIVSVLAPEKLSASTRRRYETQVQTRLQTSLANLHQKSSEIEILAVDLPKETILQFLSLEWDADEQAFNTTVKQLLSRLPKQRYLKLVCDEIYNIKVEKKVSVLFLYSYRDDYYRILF

`CCC(C)Nc1nccc(O[C@H]2CCN(CC(=O)Nc3cccc4c(-c5nc(Nc6cc(C)n(C)n6)ncc5C)c[nH]c34)C2)n1` (stereo partly drawn) [Example 212, 2-((3S)-3-((2-(sec-butylamino)pyrimidin-4-yl)oxy)pyrrolidin-1-yl)-N-(3-(2-((1,5-dimethyl-1H-pyrazol-3-yl)amino)-5-methylpyrimidin-4-yl)-1H-indol-7-yl)acetamide] and `CONc1nccc(O[C@H]2CCN(CC(=O)Nc3cccc4c(-c5nc(Nc6cc(C)n(C)n6)ncc5C)c[nH]c34)C2)n1` [Example 219, (S)-N-(3-(2-((1,5-dimethyl-1H-pyrazol-3-yl)amino)-5-methylpyrimidin-4-yl)-1H-indol-7-yl)-2-(3-((2-(methoxyamino)pyrimidin-4-yl)oxy)pyrrolidin-1-yl)acetamide] cannot be ordered by IC50: less than 10 nM for the first, less than 10 nM for the second.

`Cc1cnc(Nc2cc(C)n(C)n2)nc1-c1c[nH]c2c(NC(=O)CN3CC[C@H](Oc4ccnc(NCC5CC5)n4)C3)cccc12` [Example 213, (S)-2-(3-((2-((cyclopropylmethyl)amino)pyrimidin-4-yl)oxy)pyrrolidin-1-yl)-N-(3-(2-((1,5-dimethyl-1H-pyrazol-3-yl)amino)-5-methylpyrimidin-4-yl)-1H-indol-7-yl)acetamide] and `Cc1cnc(Nc2cc(C)n(C)n2)nc1-c1c[nH]c2c(NC(=O)CN3CC[C@H](Oc4ccnc(NCCO)n4)C3)cccc12` [Example 215, (S)-N-(3-(2-((1,5-dimethyl-1H-pyrazol-3-yl)amino)-5-methylpyrimidin-4-yl)-1H-indol-7-yl)-2-(3-((2-((2-hydroxyethyl)amino)pyrimidin-4-yl)oxy)pyrrolidin-1-yl)acetamide] cannot be ordered by IC50: less than 10 nM for the first, less than 10 nM for the second.

`Cc1cnc(Nc2cc(C)n(C)n2)nc1-c1c[nH]c2c(NC(=O)CN3CC[C@H](Oc4ccnc(NCc5ccccc5)n4)C3)cccc12` [Example 214, (S)-2-(3-((2-(benzylamino)pyrimidin-4-yl)oxy)pyrrolidin-1-yl)-N-(3-(2-((1,5-dimethyl-1H-pyrazol-3-yl)amino)-5-methylpyrimidin-4-yl)-1H-indol-7-yl)acetamide] and `COCCNc1nccc(O[C@H]2CCN(CC(=O)Nc3cccc4c(-c5nc(Nc6cc(C)n(C)n6)ncc5C)c[nH]c34)C2)n1` [Example 216, (S)-N-(3-(2-((1,5-dimethyl-1H-pyrazol-3-yl)amino)-5-methylpyrimidin-4-yl)-1H-indol-7-yl)-2-(3-((2-((2-methoxyethyl)amino)pyrimidin-4-yl)oxy)pyrrolidin-1-yl)acetamide] cannot be ordered by IC50: less than 10 nM for the first, less than 10 nM for the second.

`Cc1cnc(Nc2cc(C)n(C)n2)nc1-c1c[nH]c2c(NC(=O)CN3CC[C@H](Oc4ccnc(NCCN(C)C)n4)C3)cccc12` [Example 217, (S)-N-(3-(2-((1,5-dimethyl-1H-pyrazol-3-yl)amino)-5-methylpyrimidin-4-yl)-1H-indol-7-yl)-2-(3-((2-((2-(dimethylamino)ethyl)amino)pyrimidin-4-yl)oxy)pyrrolidin-1-yl)acetamide] and `Cc1cnc(Nc2cc(C)n(C)n2)nc1-c1c[nH]c2c(NC(=O)CN3CC[C@H](Oc4ccnc(NCCCN(C)C)n4)C3)cccc12` [Example 218, (S)-N-(3-(2-((1,5-dimethyl-1H-pyrazol-3-yl)amino)-5-methylpyrimidin-4-yl)-1H-indol-7-yl)-2-(3-((2-((3-(dimethylamino)propyl)amino)pyrimidin-4-yl)oxy)pyrrolidin-1-yl)acetamide] cannot be ordered by IC50: less than 10 nM for the first, less than 10 nM for the second.

`Cc1cnc(Nc2cc(C)n(C)n2)nc1-c1c[nH]c2c(NC(=O)CN3CC[C@H](Oc4ccnc(N(C)C)n4)C3)cccc12` [Example 220, (S)-N-(3-(2-((1,5-dimethyl-1H-pyrazol-3-yl)amino)-5-methylpyrimidin-4-yl)-1H-indol-7-yl)-2-(3-((2-(dimethylamino)pyrimidin-4-yl)oxy)pyrrolidin-1-yl)acetamide] was tested, and the IC50 was 10 to 100 nM.
